We go through 3 compounds from US11512097B2, “Heterocyclic compounds as Delta-5 desaturase inhibitors and methods of use” (Amgen Inc., priority 2019, dated 2022).

One test addresses T1, Delta-5-Desaturase (D5D) (Mus musculus, UniProt Q920L1).
T1 construct: tissue Jackson Laboratories strain #3800050; host or cells: whole animal (DIO mice)
T1 sequence (Q920L1 1-447): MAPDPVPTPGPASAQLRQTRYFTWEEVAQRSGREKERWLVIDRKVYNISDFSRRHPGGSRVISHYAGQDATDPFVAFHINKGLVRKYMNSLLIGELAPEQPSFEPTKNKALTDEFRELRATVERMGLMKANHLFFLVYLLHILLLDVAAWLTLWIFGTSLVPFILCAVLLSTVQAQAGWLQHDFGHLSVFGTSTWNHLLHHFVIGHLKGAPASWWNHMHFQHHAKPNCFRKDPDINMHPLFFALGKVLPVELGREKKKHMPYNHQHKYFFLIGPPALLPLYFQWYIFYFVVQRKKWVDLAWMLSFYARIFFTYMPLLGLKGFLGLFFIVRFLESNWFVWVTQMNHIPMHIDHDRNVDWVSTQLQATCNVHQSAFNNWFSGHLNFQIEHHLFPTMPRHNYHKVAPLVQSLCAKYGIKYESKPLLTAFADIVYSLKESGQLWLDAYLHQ
Description: In vivo measurement of Delta-5-Desaturase inhibitory activity (plasma AA/DGLA ratio in DIO mice). The following applies: single oral dose 30 mg/kg, relative to vehicle group. On the procedure:
In Vivo Measurement of Delta-5-Desaturase Inhibitory Activity
Diet-induced obese (DIO; Jackson Laboratories strain #[…]) mice were used to screen for pharmacodynamic (PD) activity of test compounds. Generally, 14 to 24 week old DIO mice, were administered test compounds formulated in the vehicle of 2% hydroxypropyl methylcellulose (HPMC) and 1% Tween80. Animals were dosed on body weight by oral gavage with a single dose (30 mg/kg) for PD studies. Necropsy included plasma collection for PUFA analysis. 10 μl of plasma or standards diluted in surrogate matrix (65 g/l bovine serum albumin in Dulbecco's phosphate-buffered saline) were mixed with 10 μl of an internal standard (100 μM alpha-linolenic acid-d14 (ALA-d14, Cayman Chemical)) in a 96 well plate. 100 μl of 2N NAOH was added to the mixture for subsequent saponification at 65° C. for 1 hour. The mixture was then acidified with 50 μl of formic acid followed by two consecutive hexane extractions. Hexane (500 μl) was added and the mixture thoroughly mixed by vortexing, followed by centrifugation at 4,000 rpm for 15 min. The hexane phase was transferred to a new 1 ml 96 well plate and the remaining aqueous layer was extracted with hexane. The organic extracts were combined and the solvent was removed by placing the plate under nitrogen gas at 55° C. 250 μl of 90% methanol was added to the plate followed by vortexing for 2 minutes. 200 μl of the samples were transferred to a new 96 well polypropylene plate. The samples were analyzed on a LC-MS/MS for the following PUFAs: arachidonic acid (AA), dihomo-gamma-linolenic acid (DGLA), with ALA-d14 as the internal standard. Description of the LC-MS/MS method: 5 μl of sample was injected onto a Poroshell 120 EC-C18 3.0×50 mm, 1.9 μm id column. […] The PUFA peak areas were quantified by using the SCIEX Analyst software. […] The relative decrease of the AA/DGLA ratio of the test compound administered group relative to the vehicle administered group was calculated and used as an index for the degree of D5D inhibition. […]

The target of test [1] is T2, Delta-5-Desaturase (D5D), membrane preparations of D5D-overexpressing HEK293 6E cells (Homo sapiens, UniProt O60427).
T2 construct: expressed in transfected cells; host or cells: HEK293 6E cells (membrane preparation)
In words: In vitro measurement of Delta-5-Desaturase inhibitory activity using DGLA-CoA and Arachidonyl-CoA mass spectrometric assays. Type of test: biochemical. The following applies: D5D membrane 10 μg/mL, one-hour incubation, average of at least two independent runs. In a few lines:
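Substrate mix (0.01 mM DGLA with NADH, ATP, coenzyme A) was incubated 1 h at room temperature with HEK293 6E D5D membranes at 10 μg/mL final, pH 7.5. Negative-mode SPE-MS/MS monitored DGLA-CoA (m/z 526.6) and arachidonyl-CoA (m/z 525.6). Inhibition normalised to DMSO and no-enzyme wells gave IC50s, mean of ≥2 runs.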

Test [2] concerns Diet-Induced Obese (DIO) mice. In words: Assessment of D5D inhibitor in Diet-Induced Obese (DIO) mice. Type of test: in vivo, Male C57BL/6J DIO mice. The following applies: for Fat mass / Lean mass: day 22, EchoMRI; for Blood glucose: day 25, 4 hour fasted; for AA / Cholesterol / DGLA / Insulin / LDL cholesterol / Triglycerides: day 25, 4 hour fasted plasma; for Body weight / Liver weights / epididymal WAT / inguinal WAT: day 27. An excerpt: Assessment of D5D Inhibitor in Diet-Induced Obese (DIO) Mice
Male C57BL/6J DIO mice (Jackson Laboratories, Stock No.: 380050) were fed high-fat diet (Research Diets, Inc., D12492) for 12 weeks. All animals were given free access to water and chow. Animals were acclimated to per os dosing for 3 days prior to the start of the experiment. Animals were randomized on body weight, fat mass, lean mass, and blood glucose concentrations in to groups of 8 to 10 animals per group. Animals were twice daily dosed per os with either: vehicle (2% hydroxypropyl methylcellulose and 1% tween 80 in water), Example 2 at 10 mg/kg, or 30 mg/kg (formulated in 2% hydroxypropyl methylcellulose and 1% tween 80 in water), or Example 45 at 3 mg/kg, or 10 mg/kg (formulated in 2% hydroxypropyl methylcellulose and 1% tween 80 in water). Three-day average (Example 2) or daily average (Example 45) food consumption was measured at the indicated times as shown in Table 17 and Table 18. Body composition (EchoMRI) was determined on day 78 for Example 2 and day 22 for Example 45. For Example 2, a non-fasted blood collection was performed on day 81; blood glucose was immediately measured, and plasma samples created from the remaining blood and used to measure DGLA and AA concentrations. On day 84, a 4-hour fasted blood collection was performed, and plasma samples were created from the blood and used to measure cholesterol, triglycerides, low-density lipoprotein (LDL) cholesterol, insulin, and adipokine (adiponectin, leptin, and resistin) levels. For Example 45, 4 hour fasted blood samples were collected on day 25 and blood glucose was measured immediately and the plasma samples created from the remaining blood were used to measure cholesterol, triglycerides, LDL cholesterol, insulin, DGLA and AA concentration. At the end of the studies, liver, epididymal white adipose tissue, inguinal white adipose tissue, mesenteric (only Example 2) white adipose tissue weights were recorded. Data was analyzed using GraphPad Prism v 7.04.
The D5D inhibitor dose-dependently led to weight loss over the course of the experiment (Table 17 and Table 18) compared to vehicle controls. Consistently fat mass was reduced, along with lower inguinal, epididymal and mesenteric white adipose tissue (WAT) weights at necropsy. Blood glucose and plasma insulin levels were both reduced by the D5D inhibitor, along with reductions in plasma cholesterol and triglycerides. Evidence of target engagement was established by observing increases in plasma DGLA and decreases in plasma AA.

The mark [3] stands for this setting: Example 45 3 mg/kg twice daily per os.
Where [4] appears, read: Example 45 10 mg/kg twice daily per os.

T2 sequence (O60427 whole entry, species assumed): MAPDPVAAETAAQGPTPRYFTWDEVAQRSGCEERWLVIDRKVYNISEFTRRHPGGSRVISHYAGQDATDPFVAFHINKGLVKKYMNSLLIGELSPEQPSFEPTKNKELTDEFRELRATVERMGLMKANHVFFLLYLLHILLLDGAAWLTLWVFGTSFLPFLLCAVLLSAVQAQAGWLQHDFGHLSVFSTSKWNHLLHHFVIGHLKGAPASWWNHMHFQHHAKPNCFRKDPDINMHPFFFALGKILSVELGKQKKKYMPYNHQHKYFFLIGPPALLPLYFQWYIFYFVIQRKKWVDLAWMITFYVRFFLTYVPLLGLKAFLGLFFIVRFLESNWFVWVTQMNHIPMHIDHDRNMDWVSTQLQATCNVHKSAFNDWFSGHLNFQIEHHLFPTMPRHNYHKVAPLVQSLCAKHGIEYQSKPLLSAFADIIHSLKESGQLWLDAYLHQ

As to `Cc1cn2c(=O)c(-c3cnn(CC(F)(F)C(F)(F)F)c3)c(C(F)(F)F)nc2n1C` [Example 52, 1,2-dimethyl-6-[1-(2,2,3,3,3-pentafluoropropyl)-1H-pyrazol-4-yl]-7-(trifluoromethyl)-1H,5H-imidazo[1,2-a]pyrimidin-5-one], the “Average % D5D Inhibition expressed as Plasma Endogenous AA/DGLA Ratio” value on Delta-5-Desaturase (D5D) is recorded as 74%. In addition, the IC50 (as a rule, the concentration at which inhibition is half-maximal) in test [1] amounted to 47.5 nM.

In turn, `O=c1c(-c2cnn(CC(F)(F)C(F)(F)F)c2)c(C(F)(F)F)nc2sc(CO)nn12` [Example 45, 2-(hydroxymethyl)-6-[1-(2,2,3,3,3-pentafluoropropyl)-1H-pyrazol-4-yl]-7-(trifluoromethyl)-5H-[1,3,4]thiadiazolo[3,2-a]pyrimidin-5-one] returned a Food consumption in test [2] (Example 45 3 mg/kg twice daily per os, day 0, daily average) of 2.5 ± 0.3 g/day. The Food consumption in test [2] (Example 45 3 mg/kg twice daily per os, day 7, daily average) is recorded as 3.0 ± 0.3 g/day. This compound also yielded a Food consumption in test [2] (Example 45 3 mg/kg twice daily per os, day 14, daily average) of 2.7 ± 0.3 g/day. Further, the Food consumption in test [2] (Example 45 3 mg/kg twice daily per os, day 21, daily average) was 2.7 ± 0.2 g/day. In test [2] (setting [3]), the Fat mass is 19.7 ± 2.2 g, the Lean mass came to 27.4 ± 1.5 g, the Blood glucose stood at 176.1 ± 9.4 mg/dL and the AA was 88.6 ± 18.9 µg/mL. Further, in test [2] (setting [3]), the Cholesterol was found to be 160.4 ± 43.7 mg/dL, the DGLA was found to be 286.9 ± 47.7 µg/mL, the Insulin is recorded as 7.2 ± 1.8 ng/mL and the LDL cholesterol worked out at 130.6 ± 25.1 mg/dL. In test [2] (setting [3]), the Triglycerides came to 32.6 ± 5.2 mg/dL, the Body weight is 47.8 ± 2.8 g, the Liver weights came to 2.6 ± 0.4 g and the “epididymal WAT” value is reported as 1.8 ± 0.3 g. Further, the “inguinal WAT” value in test [2] (setting [3]) amounted to 2.2 ± 0.5 g. The compound also gave a Food consumption in test [2] (Example 45 3 mg/kg twice daily per os, day 27, daily average) of 2.5 ± 0.2 g/day. This compound returned a Food consumption in test [2] (Example 45 10 mg/kg twice daily per os, day 0, daily average) of 2.6 ± 0.3 g/day. In test [2] (Example 45 10 mg/kg twice daily per os, day 7, daily average), this compound registered a Food consumption of 2.6 ± 0.3 g/day. In addition, the Food consumption in test [2] (Example 45 10 mg/kg twice daily per os, day 14, daily average) amounted to 2.4 ± 0.2 g/day. The compound further returned a Food consumption in test [2] (Example 45 10 mg/kg twice daily per os, day 21, daily average) of 2.5 ± 0.2 g/day. In addition, in test [2] (setting [4]), the Fat mass is recorded as 16.9 ± 2.3 g, the Lean mass was determined as 26.7 ± 1.1 g, the Blood glucose was 156.1 mg/dL and the AA worked out at 38.2 ± 3.6 µg/mL. Besides, in test [2] (setting [4]), the Cholesterol came out at 162.8 mg/dL, the DGLA stood at 212.6 µg/mL, the Insulin was 5.2 ± 0.7 ng/mL and the LDL cholesterol was 129.0 mg/dL. In test [2] (setting [4]), the Triglycerides is reported as 26.3 ± 5.5 mg/dL, the Body weight is reported as 43.8 ± 3.1 g, the Liver weights is listed as 2.6 ± 0.5 g and the “epididymal WAT” value came out at 1.7 ± 0.3 g. Besides, in test [2] (setting [4]), the “inguinal WAT” value is 1.9 ± 0.2 g. The compound also had a Food consumption in test [2] (Example 45 10 mg/kg twice daily per os, day 27, daily average) of 2.4 ± 0.2 g/day. In test [1], this compound registered an IC50 of 21.1 nM.

Consider `Cn1c(Cl)cn2c(=O)c(-c3cnn(CC(F)(F)C(F)(F)F)c3)c(C(F)(F)F)nc12` [Example 48, 2-chloro-1-methyl-6-[1-(2,2,3,3,3-pentafluoropropyl)-1H-pyrazol-4-yl]-7-(trifluoromethyl)-1H,5H-imidazo[1,2-a]pyrimidin-5-one], for which the “Average % D5D Inhibition expressed as Plasma Endogenous AA/DGLA Ratio” value on Delta-5-Desaturase (D5D) turned out to be 68%. In test [1], 6.8 nM corresponded to half-maximal inhibition (IC50).
